Measurements published in US20020137722A1, “Method for treating a patient with neoplasia by treatment with a paclitaxel derivative” (priority 1998, published 2002).
pIC50: −log10 of the molar value.

Assays:
[1] = tested on: premalignant lesions in mouse mammary gland organ culture; assay: Mammary gland organ culture model, DMBA-induced premalignant lesions; conditions: for inhibition of formation of premalignant lesions: mammary gland organ culture
Experimental: For example, female BALB/c mice can be treated with a combination of estradiol and progesterone daily, in order to prime the glands to be responsive to hormones in vitro. The animals are sacrificed and thoracic mammary glands are excised aseptically and incubated for ten days in growth media supplemented with insulin, prolactin, hydrocortisone, and aldosterone. DMBA (7,12-dimethylbenz(a)anthracene) is added to medium to induce the formation of premalignant lesions. Fully developed lands are then deprived of prolactin, hydrocortisone, and aldosterone, resulting in the regression of the glands but not the pre malignant lesions.
The test compound is dissolved in DMSO and added to the culture media for the duration of the culture period. At the end of the culture period, the glands are fixed in 10% formalin, stained with alum carmine, and mounted on glass slides. The extent of the area occupied by the mammary lesions can be quantitated by projecting an image of the gland onto a digitation pad. The area covered by the gland is traced on the pad and considered as 100% of the area. The space covered by each of the unregressed structures is also outlined on the digitization pad and quantitated by the computer.
The incidence of forming mammary lesions is the ratio of the glands with mammary lesions to […]. The incidence of mammary lesions in test compound treated glands is compared with that of the untreated glands.
Mammary gland organ culture experiments were performed as previously described (Mehta and Moon, Cancer Research, 46: 5832-5835, 1986). […] The data support the hypothesis that cyclooxygenase inhibition is not necessary for the anti-neoplastic properties of desired compounds.

[2] = tested on: HT-29 colon adenocarcinoma cells; assay: Apoptosis by DNA fragmentation assay in HT-29 cells; type: cell-based, human
HT-29 cells [3] = assay: Cyclic nucleotide (cGMP, cAMP) levels in HT-29 cells by radioimmunoassay; type: cell-based, human; conditions: HT-29 cells treated 30 minutes
Experimental: The amount of PDE activity can be determined by assaying for the amount of cyclic GMP in the extract of treated cells using a radioimmunoassay (RIA). In this procedure, a neoplastic cell line is incubated with a test compound. […]
It has been observed that a compound which is useful in the practice of this invention (i.e.. one that selectively induces apoptosis in neoplastic cells, but not substantially in normal cells) follows a time course consistent with cGMP-specific PDE inhibition. […] The intracellular targets of these drug actions are being studied further, but current data support the concert that the initial rise in cGMP content and the subsequent fall in cGMP content precede apoptosis in neoplastic cells exposed to test compounds useful in this invention. To determine the cyclic AMP content in cell extracts, radioimmunoassay techniques similar to those described above for cGMP are used.

HT-29 cells [4] = assay: Apoptosis and necrosis by morphology (acridine orange/ethidium bromide) in HT-29 cells; type: cell-based, human; conditions: 120 μM, time course
Experimental: Growth inhibition (FIG. 9A, top) was measured by counting viable cells after trypan blue staining. Apoptosis (FIG. 9B, bottom) was measured by morphological determination following staining with acridine orange and ethidium bromide as described previously and Cohen, In: Current Protocols in Immunology, 3.17.1-3.17.16 New York, John Wiley and Sons, 1992). […] All data were collected from the same experiment.
Following treatment with a test compound, cultures can be assayed for apoptosis and necrosis by fluorescent microscopy following labeling with acridine orange and ethidium bromide. […]
Reference compounds and test compounds were analyzed for their cGMP-specific PDE inhibitory activity in accordance with the protocols for the assay, supra. […] Apoptotic and necrotic cell death was determined as previously described (Duke and Cohen, In: Current Protocols in Immunology, 3.17.1-3.17.16, New York. John Wiley and Sons, 1992). […]
The apoptosis inducing activity for a series of phosphodiesterase inhibitors was determined. […] Apoptosis and necrosis were determined morphologically after acridine orange and ethidium bromide labeling in accordance with the assay described supra.

[5] = tested on: PDE peak B (novel cGMP-PDE); assay: cGMP hydrolysis by PDE peak B isolated from SW-480 cells; type: biochemical, human
HT-29 cells [6] = assay: HT-29 tumor cell growth inhibition, SRB assay; type: cell-based, human; design: Growth Inhibition: key to the marks not given beside the values; conditions: for Growth inhibitory activity % Inhibition at 100 μM: 100 μM single dose
COX = COX inhibition; type: biochemical
cGMP-PDE = cGMP-PDE inhibition assay, enzyme from HT-29 cultured tumor cells; type: biochemical, human; conditions: for cGMP PDE % Inhibition at 100 μM: 100 μM (test compounds)
PDE peak A (PDE5) = biological target: T1, PDE peak A (PDE5) (Homo sapiens, UniProt O76074); assay: cGMP hydrolysis by PDE peak A isolated from SW-480 cells; type: biochemical
T1 construct: SW-480 cells are collected and homogenized; The homogenate is centrifuged, and the supernatant is loaded onto a DEAE-Trisacryl M column; endogenous in cells; host or cells: SW-480 human colon adenocarcinoma cells (DEAE-Trisacryl M fraction, peak A)

[7] = reversible; cited from earlier work

CC1=C(CC(=O)O)c2cc(F)ccc2/C1=C/c1ccc([S+](C)[O-])cc1 (centres unmarked) [sulindac sulfoxide]
inhibition of formation of premalignant lesions [1]: effectively inhibit the formation of premalignant lesions

COc1cc(/C=C2/C(C)=C(CC(=O)NCc3ccccc3)c3cc(F)ccc32)cc(OC)c1OC [Compound E, (Z)-5-Fluoro-2-methyl-1-(3,4,5-trimethoxybenzylidene)-3-indenylacetamide, N-benzyl]
apoptosis induction in neoplastic cells [2]: induce apoptosis in neoplastic cells

CSc1ccc(/C=C2/C(C)=C(CC(=O)O)c3cc(F)ccc32)cc1 [Sulindac sulfide]
apoptosis induction in neoplastic cells [2]: induce apoptosis in neoplastic cells | inhibition of formation of premalignant lesions [1]: inactive | increase in levels of cGMP (HT-29 cells [3]): greater than 50% | pIC50 (HT-29 cells [3]; Homo sapiens, 0.5 h, read-out: IC50 value for increase of cGMP levels): 5.14 | apoptosis, morphological determination (HT-29 cells [4]): an increase in apoptosis

CCCOc1ccccc1-c1nc2nn[nH]c2c(=O)[nH]1 [Zaprinast]
apoptosis induction in neoplastic cells [2]: do not have significant apoptosis-inducing | sensitivity of the new cGMP-PDE (peak B) to inhibition [5]: relatively insensitive | growth inhibition of neoplastic cells (HT-29 cells [6]): do not have significant apoptosis-inducing (Table 6) or growth-inhibiting

CCOC(=O)C1=C[C@]2(CC)CCCN3CCc4c(n1c1ccccc41)[C@@H]32 [Vinpocetine]
sensitivity of the new cGMP-PDE (peak B) to inhibition [5]: relatively insensitive

CCN(CC)CCSC12CC(=O)OC1(C)/C(=C/c1ccc(S(C)(=O)=O)cc1)c1ccc(F)cc12 (racemic) [A, rac-threo-(E)-1-(N,N′-diethylaminoethanethio)-1-(butan-1′,4′-olido)-[3′,4′:1,2]-6-fluoro-2-methyl-3-(p-methylsulfonylbenzylidene)-indan]
Apoptosis inducing activity, Fold induction at 100 μM ([2]; 100 μM): <2.0 fold | COX Inhibition (COX; activity profile): − | cGMP PDE % Inhibition at 100 μM (cGMP-PDE): <25% | Growth inhibitory activity % Inhibition at 100 μM (HT-29 cells [6]): 68%

O=C([O-])C1CCN(c2nc(NCc3ccc4c(c3)OCO4)c3cc(Cl)ccc3n2)CC1.[Na+] [Compound E4021]
apoptosis induction in neoplastic cells [2]: do not have significant apoptosis-inducing | sensitivity of the new cGMP-PDE (peak B) to inhibition [5]: relatively insensitive | growth inhibition of neoplastic cells (HT-29 cells [6]): do not have significant apoptosis-inducing (Table 6) or growth-inhibiting | Growth inhibitory activity % Inhibition at 100 μM (HT-29 cells [6]): <50%

CC1(C)C(=O)Nc2ccc(C3=NNC(=O)CC3)cc21 [Indolidan]
sensitivity of the new cGMP-PDE (peak B) to inhibition [5]: relatively insensitive

COc1ccc(C2CNC(=O)C2)cc1OC1CCCC1 (centres unmarked) [Rolipram]
sensitivity of the new cGMP-PDE (peak B) to inhibition [5]: relatively insensitive

CC1=C(CC(=O)O)c2cc(F)ccc2/C1=C\c1ccc(Cl)cc1 [C, (Z)-5-Fluoro-2-methyl-1-(p-chlorobenzylidene)-3-acetic acid]
Growth inhibitory activity % Inhibition at 100 μM (HT-29 cells [6]): 80%

CCCc1nn(C)c2c(=O)[nH]c(-c3cc(S(=O)(=O)N4CCN(C)CC4)ccc3OCC)nc12 [Sildenafil]
apoptosis induction in neoplastic cells [2]: do not have significant apoptosis-inducing | inhibition of peak A / PDE5 activity (PDE peak A (PDE5)): inhibited activity of peak A | growth inhibition of neoplastic cells (HT-29 cells [6]): do not have significant apoptosis-inducing (Table 6) or growth-inhibiting

COc1cc(C=C2C(C)=C(CC(=O)O)c3cc(F)ccc32)cc(OC)c1OC [Compound B, (Z)-5-Fluoro-2-methyl-1-(3,4,5-trimethoxybenzylidene)-3-acetic acid]
COX Inhibition (COX; 100 μM): did not inhibit COX | COX Inhibition (COX; activity profile): − | cGMP PDE % Inhibition at 100 μM (cGMP-PDE): <25%

CC(=O)N[C@@H](CSC12CC(=O)OC1(C)/C(=C/c1ccc(S(C)(=O)=O)cc1)c1ccc(F)cc12)C(=O)O (mixture of isomers) [D, rac-(E)-1-(butan-1′,4′-olide)-[3′,4′:1,2]-6-fluoro-2-methyl-3-(p-methylsulfonylbenzylidene)-1S-indanyl-N-acetylcysteine]
Apoptosis ([2]; activity profile): − | Mammary Gland Organ Culture ([1]; activity profile): − | COX Inhibition (COX; activity profile): − | PDE Inhibition (cGMP-PDE; activity profile): − | Growth inhibitory activity % Inhibition at 100 μM (HT-29 cells [6]): 78% | Growth Inhibition (HT-29 cells [6]; activity profile): ++

CC1=C(CC(=O)O)c2cc(F)ccc2/C1=C\c1ccc(S(C)(=O)=O)cc1 [Exisulind, (Z)-5-fluoro-2-methyl-1-[[4-(methylsulfonyl)phenyl]methylene]indene-3-yl acetic acid]
inhibition of formation of premalignant lesions [1]: effectively inhibit the formation of premalignant lesions | inhibition of peak A / PDE5 activity (PDE peak A (PDE5)): inhibits both PDES and the new cGMP-PDE | sensitivity of the new cGMP-PDE (peak B) to inhibition [5]: inhibits both PDES and the new cGMP-PDE | side effects at doses higher than the recommended therapeutic levels [7]: elevated levels of liver enzymes
